Measurements taken from patent US8586747B2, “3,3-dimethyl tetrahydroquinoline derivatives” (Hoffmann-La Roche Inc., priority 2010, dated 2013).

Each compound was assayed on AMP-activated protein kinase (AMPK) (assay: ADP Quest assay for AMPK activators). Conditions: fold of AMPK activation to phosphorylate SAMS peptide without and with an activator at the concentration of 30 µM.
Format: biochemical
Design: key: fold AMPK activation with vs without activator at 30 µM
Procedure, shortened: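 E30, the fold increase in SAMS peptide phosphorylation at 30 µM compound relative to no activator, is derived from kinetic fluorescent detection of ADP (ex 530, em 590 nm). AMPK starts the ATP-containing reaction at room temperature; compounds span […] by 2-fold steps, AMP serves as reference.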

Going from `CC1(C)Cc2cc(C(=O)O)ccc2NC1c1cccc(N2C(=O)OCC2Cc2ccccc2)c1` (stereo in doubt) [Example 127, 2-[3-((R)4-Benzyl-2-oxo-oxazolidin-3-yl)-phenyl]-3,3-dimethyl-1,2,3,4-tetrahydro-quinoline-6-carboxylic acid] to `CC1(C)Cc2cc(C(=O)O)ccc2NC1c1cccc(-n2nnnc2Cc2ccccc2)c1` (stereo not drawn) [Example 147, 2-[3-(5-Benzyl-tetrazol-1-yl)-phenyl]-3,3-dimethyl-1,2,3,4-tetrahydro-quinoline-6-carboxylic acid], the E30 rises from 1.26 to 1.35.

Compared with `CCc1nnnn1-c1cccc(C2Nc3ccc(C(=O)O)cc3CC2(C)C)c1` (stereo not drawn) [Example 148, 2-[3-(5-Ethyl-tetrazol-1-yl)-phenyl]-3,3-dimethyl-1,2,3,4-tetrahydro-quinoline-6-carboxylic acid], `CC1(C)Cc2cc(C(=O)O)ccc2NC1c1ccc(F)c(Cl)c1` (stereo not drawn) [Example 113, 2-(3-Chloro-4-fluoro-phenyl)-3,3-dimethyl-1,2,3,4-tetrahydro-quinoline-6-carboxylic acid] is lower in E30: 1.3 for the first, 1.21 for the second.

First: CC(C)(C)c1ccc(-c2cccc(C3Nc4c(cc(Cl)cc4C(=O)NS(C)(=O)=O)CC3(C)C)c2)cc1 (stereo not drawn) [Example 144, N-[2-(4′-tert-Butyl-biphenyl-3-yl)-6-chloro-3,3-dimethyl-1,2,3,4-tetrahydro-quinoline-8-carbonyl]-methanesulfonamide]
Second: CC(C)(C)NC(=O)c1ccc(-c2cccc(C3Nc4ccc(C(=O)NS(C)(=O)=O)cc4CC3(C)C)c2)cc1 (stereo not drawn) [Example 160, 3′-(6-Methanesulfonylaminocarbonyl-3,3-dimethyl-1,2,3,4-tetrahydro-quinolin-2-yl)-biphenyl-4-carboxylic acid tert-butylamide]
The E30 of the first is higher: 1.25 for the first, 1.23 for the second.

First: CN1CCN(c2cccc(C3Nc4ccc(C(=O)NS(=O)(=O)C5CC5)cc4CC3(C)C)c2)C(=O)C1=O (stereo not drawn) [Example 129, Cyclopropanesulfonic acid {3,3-dimethyl-2-[3-(4-methyl-2,3-dioxo-piperazin-1-yl)-phenyl]-1,2,3,4-tetrahydro-quinoline-6-carbonyl}-amide]
Second: CC1(C)Cc2cc(C(=O)NS(=O)(=O)C3CC3)ccc2NC1c1ccc(F)c(N2CCOCC2)c1 (stereo not drawn) [Example 58, Cyclopropanesulfonic acid [2-(4-fluoro-3-morpholin-4-yl-phenyl)-3,3-dimethyl-1,2,3,4-tetrahydro-quinoline-6-carbonyl]-amide]
The E30 of the first is higher: 1.25 for the first, 1.22 for the second.

First: CN1CCN(C(=O)C(C)(C)Nc2cccc(C3Nc4ccc(C(=O)O)cc4CC3(C)C)c2)CC1 (stereo not drawn) [Example 42, 2-{3-[1,1-Dimethyl-2-(4-methyl-piperazin-1-yl)-2-oxo-ethylamino]-phenyl}-3,3-dimethyl-1,2,3,4-tetrahydro-quinoline-6-carboxylic acid]
Second: CN(C)C(=O)C(C)(C)Nc1cccc(C2Nc3ccc(C(=O)O)cc3CC2(C)C)c1 (stereo not drawn) [Example 40, 2-[3-(1-Dimethylcarbamoyl-1-methyl-ethylamino)-phenyl]-3,3-dimethyl-1,2,3,4-tetrahydro-quinoline-6-carboxylic acid]
The E30 of the first is lower: 1.31 for the first, 1.35 for the second.

First: CN1CC(NC(=O)c2cccc(C3Nc4ccc(C(=O)O)cc4CC3(C)C)c2)C1 (stereo not drawn) [Example 208, 3,3-Dimethyl-2-(3-(1-methylazetidin-3-ylcarbamoyl)phenyl)-1,2,3,4-tetrahydroquinoline-6-carboxylic acid]
Second: CC1(C)Cc2cc(C(=O)O)ccc2NC1c1cccc(C(=O)NC2CCOC2)c1 (stereo not drawn) [Example 167, 3,3-Dimethyl-2-(3-(tetrahydrofuran-3-ylcarbamoyl)phenyl)-1,2,3,4-tetrahydroquinoline-6-carboxylic acid]
The E30 of the first is lower: 1.3 for the first, 1.4 for the second.

Going from `CC(C)NS(=O)(=O)c1cccc(C2Nc3ccc(C(=O)O)cc3CC2(C)C)c1` (stereo not drawn) [Example 221, 2-(3-(N-isopropylsulfamoyl)phenyl)-3,3-dimethyl-1,2,3,4-tetrahydroquinoline-6-carboxylic acid] to `CC(=O)Nc1ccc(S(=O)(=O)Nc2cccc(C3Nc4ccc(C(=O)O)cc4CC3(C)C)c2)cc1` (stereo not drawn) [Example 169, 2-(3-(4-Acetamidophenylsulfonamido)phenyl)-3,3-dimethyl-1,2,3,4-tetrahydroquinoline-6-carboxylic acid], the E30 rises from 1.33 to 1.38.

First: CC1(C)Cc2c(C(=O)NS(=O)(=O)C3CC3)ccc(F)c2NC1c1cccc(N2CCOCC2)c1 (stereo not drawn) [Example 150, Cyclopropanesulfonic acid [8-fluoro-3,3-dimethyl-2-(3-morpholin-4-yl-phenyl)-1,2,3,4-tetrahydro-quinoline-5-carbonyl]-amide]
Second: CC1(C)Cc2c(C(=O)NS(=O)(=O)C3CC3)ccc(Cl)c2NC1c1cccc(N2CCOCC2)c1 (stereo not drawn) [Example 133, Cyclopropanesulfonic acid [8-chloro-3,3-dimethyl-2-(3-morpholin-4-yl-phenyl)-1,2,3,4-tetrahydro-quinoline-5-carbonyl]-amide]
The E30 of the first is higher: 1.22 for the first, 1.2 for the second.

Going from `CC1(C)Cc2cc(C(=O)O)ccc2NC1c1ccc(NC(=O)C2=CCCCC2)cc1` (stereo not drawn) [Example 217, 2-(4-(Cyclohex-1-enecarboxamido)phenyl)-3,3-dimethyl-1,2,3,4-tetrahydroquinoline-6-carboxylic acid] to `CC1(C)Cc2cc(C(=O)O)ccc2NC1c1cccc(C(=O)Nc2ccccc2)c1` (stereo not drawn) [Example 14, 3,3-Dimethyl-2-(3-phenylcarbamoyl-phenyl)-1,2,3,4-tetrahydro-quinoline-6-carboxylic acid], the E30 falls from 1.27 to 1.2.

Going from `CC1(C)Cc2cc(C(=O)NS(=O)(=O)C3CC3)ccc2NC1c1ccc(N2CCOCC2)cc1` (stereo not drawn) [Example 73, Cyclopropanesulfonic acid [3,3-dimethyl-2-(4-morpholin-4-yl-phenyl)-1,2,3,4-tetrahydro-quinoline-6-carbonyl]-amide] to `CC1(C)Cc2cc(Cl)cc(C(=O)NS(=O)(=O)C3CC3)c2NC1c1cccc(N2CCOCC2)c1` (stereo not drawn) [Example 101, Cyclopropanesulfonic acid [6-chloro-3,3-dimethyl-2-(3-morpholin-4-yl-phenyl)-1,2,3,4-tetrahydro-quinoline-8-carbonyl]-amide], the E30 rises from 1.21 to 1.4.

First: CC(C)(C)c1ccc(-c2cccc(C3Nc4ccc(F)c(C(=O)NS(=O)(=O)C5CC5)c4CC3(C)C)c2)cc1 (stereo not drawn) [Example 156, Cyclopropanesulfonic acid [2-(4′-tert-butyl-biphenyl-3-yl)-6-fluoro-3,3-dimethyl-1,2,3,4-tetrahydro-quinoline-5-carbonyl]-amide]
Second: Cc1ccccc1N1CCN(c2cccc(C3Nc4ccc(C(=O)NS(C)(=O)=O)cc4CC3(C)C)c2)CC1 (stereo not drawn) [Example 155, N-{3,3-Dimethyl-2-[3-(4-o-tolyl-piperazin-1-yl)-phenyl]-1,2,3,4-tetrahydro-quinoline-6-carbonyl}-methanesulfonamide]
The E30 of the first is higher: 1.66 for the first, 1.19 for the second.

Compared with `CC1(C)Cc2cc(C(=O)O)ccc2NC1c1cccc(NC2(C(=O)O)CC2)c1` (stereo not drawn) [Example 44, 2-[3-(1-Carboxy-cyclopropylamino)-phenyl]-3,3-dimethyl-1,2,3,4-tetrahydro-quinoline-6-carboxylic acid], `CC1(C)Cc2cc(C(=O)O)ccc2NC1c1cccc(NC(=O)c2cnccn2)c1` (stereo not drawn) [Example 5, 3,3-Dimethyl-2-{3-[(pyrazine-2-carbonyl)-amino]-phenyl}-1,2,3,4-tetrahydro-quinoline-6-carboxylic acid] is lower in E30: 2.67 for the first, 1.32 for the second.
